Reference: patent US4426390A, “Novel β-lactam compounds, process for producing thereof, and use thereof as medicines” (Sanraku-Ocean Co., Ltd., priority 1980, dated 1984)
Values after ≈ are worked out from the molar mass of the structure shown.

Legend:
[1] = Physicochemical properties; settings: pale yellow powder
[2] = Stability (half life) in phosphate buffers of various pH; assay type: physicochemical; settings: 28° C.
Description: By adding 2% sodium hydroxide or 10% hydrochloric acid, the pH of 0.05 M phosphate buffer is adjusted to 4, 5, 6, 7, 8 and 9, respectively, and distributed into test tubes in an amount of 3 ml. Concentrated solution of antibiotic OA-6129A (0.05 ml) is added to each test tube and allowed to stand in a thermostatic chamber of 28° C. The time course curve of the concentration decrease of antibiotic OA-6129A is drawn by spectrophotometric measurement at 300 nm, from which the half life of the antibiotic at the indicated pH is calculated. As a control, antibiotic PS-5, a carbapenem compound described in the above-cited reference is simultaneously tested.

[3] = tested on: Citrobacter Freundii GN346; test: Synergistic effect on MIC, microdilution transfer plate technique; assay type: cell-based
Proteus vulgaris GN76 = test: as above; assay type: cell-based
Ent. cloacae 45 = test: MIC by agar dilution method; assay type: cell-based; settings: Enterobacter cloacae, 37° C., 18 hours
Description: (§1) The MIC is measured by an agar dilution method based on the standard method of the Japanese Society of Chemotherapy (Japanese Society of Chemotherapy: The Revised Method of Determination of MIC Values, Chemotherapy 22, 1126-1128, […]). Specifically, the antibiotic is serially diluted with a 1/50 M phosphate buffer at a pH of 7.3 to prepare a twofold dilution series. One milliliter of each dilution and 9 ml of an agar medium (Heart Infusion Agar; a product of Difco Laboratories) are mixed and allowed to solidify in a Petri dish having a diameter of 9 cm. One loopful of the stock culture of the test microbe is inoculated in trypto-soy buillon (a product of Eiken Kagaku Co., Ltd.) and incubated at 37° C. for 18 hours. The resulting culture broth is diluted to a concentration of about 10^6 cells/ml with physiological saline and inoculated on the agar plate by means of a microplanter.

Escherichia coli K-12 = test: MIC by agar dilution method; assay type: cell-based; settings: K12; Escherichia coli K-12; agar dilution, 37° C., 18 hours; read-out: MIC
Description: as §1

Comamonas terrigena B996 = test: MIC by agar dilution method; assay type: cell-based; settings: 37° C., 18 hours
Description: as §1

E. coli RGN823 = test: MIC by agar dilution method; assay type: cell-based; settings: Escherichia coli, 37° C., 18 hours
Description: as §1

Ser. marcesceus T55 = test: MIC by agar dilution method; assay type: cell-based; settings: 37° C., 18 hours
Description: as §1

Providencia sp. P8 = test: MIC by agar dilution method; assay type: cell-based; settings: Providencia sp. P8; agar dilution, 37° C., 18 hours; read-out: MIC
Description: as §1

Ent. sp. E8 = test: MIC by agar dilution method; assay type: cell-based; settings: Ent. sp. E8; agar dilution, 37° C., 18 hours; read-out: MIC
Description: as §1

Proteus mirabilis P6 = test: MIC by agar dilution method; assay type: cell-based; settings: Proteus mirabilis P6; agar dilution, 37° C., 18 hours; read-out: MIC
Description: as §1

P. rettgeri P7 = test: MIC by agar dilution method; assay type: cell-based; settings: Providencia rettgeri; P. rettgeri P7; agar dilution, 37° C., 18 hours; read-out: MIC
Description: as §1

[4] = tested on: Klebsiella pneumoniae K13; test: MIC by agar dilution method; assay type: cell-based; settings: 37° C., 18 hours
Description: as §1

[5] = tested on: Staphylococcus aureus 209P; test: MIC by agar dilution method; assay type: cell-based; settings: 37° C., 18 hours
Description: as §1

Ps. aeruginosa NCTC10490 = test: MIC by agar dilution method; assay type: cell-based; settings: Pseudomonas aeruginosa, 37° C., 18 hours
Description: as §1

[6] = tested on: Bacillus subtillis ATCC 6633; test: MIC by agar dilution method; assay type: cell-based; settings: Bacillus, ATCC6633, 18 h
Description: as §1

Alcaligenes Faecolis A1 = test: MIC by agar dilution method; assay type: cell-based; settings: Alcaligenes Faecolis A1; agar dilution, 37° C., 18 hours; read-out: MIC
Description: as §1

S. aureus Smith = test: MIC by agar dilution method; assay type: cell-based; settings: Staphylococcus aureus, 37° C., 18 hours
Description: as §1

Sarcina lutea S19 = test: MIC by agar dilution method; assay type: cell-based; settings: Micrococcus luteus, 37° C., 18 hours
Description: as §1

Serratia marcesceus S18 = test: MIC by agar dilution method; assay type: cell-based; settings: 37° C., 18 hours
Description: as §1

[7] = tested on: Citrobacter Freundii GN346; test: MIC by agar dilution method; assay type: cell-based; settings: 37° C., 18 hours
Description: as §1

[8] = tested on: Enterobacter aerogenes E19; test: MIC by agar dilution method; assay type: cell-based; settings: Klebsiella aerogenes, 37° C., 18 hours
Description: as §1

[9] = tested on: Pseudomonas aenginosa IFO3445; test: MIC by agar dilution method; assay type: cell-based; settings: 37° C., 18 hours
Description: as §1

P. vulgaris GN76 = test: MIC by agar dilution method; assay type: cell-based; settings: Proteus vulgaris, 37° C., 18 hours
Description: as §1

S. aureus Russell = test: MIC by agar dilution method; assay type: cell-based; settings: Staphylococcus aureus; S. aureus Russell; agar dilution, 37° C., 18 hours; read-out: MIC
Description: as §1

S. epidermidis = test: MIC by agar dilution method; assay type: cell-based; settings: Staphylococcus epidermidis, 37° C., 18 hours
Description: as §1

ddY mice = settings: mouse, in vivo, ip, 500 mg/kg
[10] = OA-6129A 25 combined with CER <5

CC[C@H]1C(=O)N2C(C(=O)O)=C(SCCNC(=O)CCNC(=O)C(O)C(C)(C)CO)C[C@H]12 (relative stereo) [OA-6129A]
hygroscopicity [1]: hygroscopic | half-life ([2]; pH 4, 0.05 M phosphate buffer): 63 min | half-life ([2]; pH 5, 0.05 M phosphate buffer): 244 min | half-life ([2]; pH 6, 0.05 M phosphate buffer): 1270 min | half-life ([2]; pH 7, 0.05 M phosphate buffer): 3460 min | half-life ([2]; pH 8, 0.05 M phosphate buffer): 7700 min | half-life ([2]; pH 9, 0.05 M phosphate buffer): 7930 min | MIC ([3]; Citrobacter freundii, GN346, alone, heart infusion broth, 10^5 cells/ml): 50 µg/mL | FIC index ([3]; OA-6129A 1.56 combined with ABPC […]): 1.03 | FIC index ([3]; OA-6129A 1.56 combined with CER 1250): 1.03 | FIC index ([3]; OA-6129A 3.13 combined with ABPC 625): 0.63 | FIC index ([3]; OA-6129A 3.13 combined with CER 625): 0.63 | FIC index ([3]; OA-6129A 6.25 combined with ABPC […]): 0.38 | FIC index ([3]; OA-6129A 6.25 combined with CER 313): 0.38 | FIC index ([3]; OA-6129A 12.5 combined with ABPC […]): 0.50 | FIC index ([3]; OA-6129A 12.5 combined with CER 313): 0.50 | FIC index ([3]; OA-6129A 25 combined with ABPC <5): 0.50 | FIC index [3, 10]: 0.50 | FIC index (Proteus vulgaris GN76; OA-6129A 1.56 combined with ABPC (printed 3.3)): 0.28 | FIC index (Proteus vulgaris GN76; OA-6129A 1.56 combined with CER 313): 0.28 | FIC index (Proteus vulgaris GN76; OA-6129A 3.13 combined with ABPC 156): 0.19 | FIC index (Proteus vulgaris GN76; OA-6129A 3.13 combined with CER 156): 0.19 | FIC index (Proteus vulgaris GN76; OA-6129A 6.25 combined with ABPC 39): 0.16 | FIC index (Proteus vulgaris GN76; OA-6129A 6.25 combined with CER 39): 0.16 | FIC index (Proteus vulgaris GN76; OA-6129A 12.5 combined with ABPC 10): 0.26 | FIC index (Proteus vulgaris GN76; OA-6129A 12.5 combined with CER 20): 0.27 | FIC index (Proteus vulgaris GN76; OA-6129A 25 combined with ABPC 10): 0.51 | FIC index (Proteus vulgaris GN76; [10]): 0.50 | MIC (Proteus vulgaris GN76; Proteus vulgaris, GN76, alone, heart infusion broth, 10^5 cells/ml): 50 µg/mL | MIC (Ent. cloacae 45): 50 µg/mL (≈ 109 µM) | MIC (Escherichia coli K-12): 12.5 µg/mL (≈ 27.3 µM) | MIC (Comamonas terrigena B996): 0.05 µg/mL (≈ 0.109 µM) | MIC (E. coli RGN823): 12.5 µg/mL (≈ 27.3 µM) | MIC (Ser. marcesceus T55): 100 µg/mL (≈ 219 µM) | MIC (Providencia sp. P8): 12.5 µg/mL (≈ 27.3 µM) | MIC (Ent. sp. E8): 12.5 µg/mL (≈ 27.3 µM) | MIC (Proteus mirabilis P6): 50 µg/mL (≈ 109 µM) | MIC (P. rettgeri P7): 25 µg/mL (≈ 54.6 µM) | MIC [4]: 50 µg/mL (≈ 109 µM) | MIC [5]: 0.78 µg/mL (≈ 1.7 µM) | MIC (Ps. aeruginosa NCTC10490): > 100 µg/mL | MIC [6]: 0.39 µg/mL (≈ 0.852 µM) | MIC (Alcaligenes Faecolis A1): 1.56 µg/mL (≈ 3.41 µM) | MIC (S. aureus Smith): 1.56 µg/mL (≈ 3.41 µM) | MIC (Sarcina lutea S19): 0.78 µg/mL (≈ 1.7 µM) | MIC (Serratia marcesceus S18): 100 µg/mL (≈ 219 µM) | MIC [7]: 50 µg/mL (≈ 109 µM) | MIC [8]: 25 µg/mL (≈ 54.6 µM) | MIC [9]: > 100 µg/mL | MIC (P. vulgaris GN76): 100 µg/mL (≈ 219 µM) | MIC (S. aureus Russell): 0.78 µg/mL (≈ 1.7 µM) | MIC (S. epidermidis): 1.56 µg/mL (≈ 3.41 µM) | acute toxicity (ddY mice): no acute toxicity is observed
